The structures appear in SMILES notation.

This passage reports Kd results from PMC10649968, “Structural Basis of the Immunological Cross-Reactivity between Kiwi and Birch Pollen” (Foods, 2023).

One test deals with T1, Act c 8 (Actinidia chinensis, UniProt D1YSM4).
T1 construct: gene ypr-10
T1 sequence (D1YSM4 1-159): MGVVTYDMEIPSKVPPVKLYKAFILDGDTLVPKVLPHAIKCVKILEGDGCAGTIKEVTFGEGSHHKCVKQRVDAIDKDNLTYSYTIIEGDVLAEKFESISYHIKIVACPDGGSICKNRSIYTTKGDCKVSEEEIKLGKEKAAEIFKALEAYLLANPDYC
The experiment in a line: 1H-15N HSQC NMR titration (chemical shift perturbations). In kind it is binding.

The target in the next test is T2, Act d 8 (Actinidia deliciosa, UniProt D1YSM5).
T2 construct: gene ypr-10
T2 sequence (D1YSM5 1-157): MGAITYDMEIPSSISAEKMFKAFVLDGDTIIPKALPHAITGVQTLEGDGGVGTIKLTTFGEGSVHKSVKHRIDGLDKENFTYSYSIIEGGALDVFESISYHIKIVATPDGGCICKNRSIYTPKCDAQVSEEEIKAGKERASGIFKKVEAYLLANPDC
The description is as above. In kind it is binding.

In general, Kd refers to the constant that tells how readily two partners part at equilibrium. Regarding `Oc1cccc(O)c1O` [pyrogallol], the Kd at Act c 8 amounted to 30 mM; on Act d 8, 5 mM.
